Numbers after ± are expanded uncertainties.
Experiment: activity coefficient (dimensionless); of the first substance listed, at infinite dilution; xn = mol fraction of the nth substance listed
Settings: Liquid, Chromatography, x1 = 0

| Structure (SMILES) | activity coefficient (318.15 K) | activity coefficient (328.15 K) | activity coefficient (338.15 K) | activity coefficient (348.15 K) | activity coefficient (358.15 K) | activity coefficient (368.15 K) |
| --- | --- | --- | --- | --- | --- | --- |
| CO [methanol] + CCCCn1cc[n+](C)c1.N#CN=C=[N-] | 0.399 ± 0.034 | 0.408 ± 0.034 | 0.42 ± 0.035 | 0.431 ± 0.035 | 0.442 ± 0.036 | 0.46 ± 0.036 |
| c1ccncc1 [pyridine] + CCCCn1cc[n+](C)c1.N#CN=C=[N-] | 0.845 ± 0.054 | 0.89 ± 0.06 | 0.94 ± 0.059 | 0.985 ± 0.062 | 1.03 ± 0.06 | 1.08 ± 0.07 |
| CC(C)=O [acetone] + CCCCn1cc[n+](C)c1.N#CN=C=[N-] | 1 ± 0.06 | 1.05 ± 0.07 | 1.11 ± 0.07 | 1.16 ± 0.07 | 1.22 ± 0.08 | 1.27 ± 0.08 |
| C#CCCC [1-pentyne] + CCCCn1cc[n+](C)c1.N#CN=C=[N-] | 3.7 ± 0.3 | 3.94 ± 0.27 | 4.16 ± 0.28 | 4.38 ± 0.3 | 4.6 ± 0.3 | 4.84 ± 0.33 |
| c1ccccc1 [benzene] + CCCCn1cc[n+](C)c1.N#CN=C=[N-] | 1.87 ± 0.13 | 1.95 ± 0.13 | 2.03 ± 0.14 | 2.11 ± 0.14 | 2.19 ± 0.15 | 2.28 ± 0.16 |
| Cc1ccccc1C [1,2-dimethylbenzene] + CCCCn1cc[n+](C)c1.N#CN=C=[N-] | 3.82 ± 0.26 | 3.97 ± 0.27 | 4.12 ± 0.28 | 4.27 ± 0.29 | 4.42 ± 0.3 | 4.57 ± 0.31 |
| Cc1ccc(C)cc1 [1,4-dimethylbenzene] + CCCCn1cc[n+](C)c1.N#CN=C=[N-] | 4.44 ± 0.3 | 4.62 ± 0.31 | 4.82 ± 0.33 | 5 ± 0.34 | 5.18 ± 0.35 | 5.37 ± 0.37 |
| CCC(C)CC [3-methylpentane] + CCCCn1cc[n+](C)c1.N#CN=C=[N-] | 53.7 ± 3.7 | 51.7 ± 3.5 | 50 ± 3.4 | 48.4 ± 3.3 | 47.1 ± 3.2 | 45.6 ± 3.1 |
| CCCCCCC [heptane] + CCCCn1cc[n+](C)c1.N#CN=C=[N-] | 91 ± 6.2 | 87.2 ± 6 | 83.9 ± 5.8 | 80.6 ± 5.5 | 77.8 ± 5.3 | 75.3 ± 5.2 |
| CCC(=O)CC [pentan-3-one] + CCCCn1cc[n+](C)c1.N#CN=C=[N-] | 2.04 ± 0.14 | 2.16 ± 0.15 | 2.27 ± 0.15 | 2.38 ± 0.16 | 2.49 ± 0.17 | 2.6 ± 0.18 |
| CCOC(C)(C)C [2-ethoxy-2-methylpropane] + CCCCn1cc[n+](C)c1.N#CN=C=[N-] | 18.1 ± 1.2 | 18.4 ± 1.3 | 18.7 ± 1.3 | 19.1 ± 1.3 | 19.3 ± 1.3 | 19.7 ± 1.3 |
| CC(C)(C)O [2-methylpropan-2-ol] + CCCCn1cc[n+](C)c1.N#CN=C=[N-] | 1.11 ± 0.07 | 1.14 ± 0.07 | 1.16 ± 0.07 | 1.19 ± 0.08 | 1.21 ± 0.08 | 1.24 ± 0.08 |
| COC(C)=O [methyl ethanoate] + CCCCn1cc[n+](C)c1.N#CN=C=[N-] | 1.61 ± 0.11 | 1.71 ± 0.11 | 1.81 ± 0.12 | 1.9 ± 0.13 | 1.99 ± 0.14 | 2.09 ± 0.14 |
| C#CCCCCC [1-heptyne] + CCCCn1cc[n+](C)c1.N#CN=C=[N-] | 8.24 ± 0.56 | 8.61 ± 0.59 | 9.02 ± 0.62 | 9.42 ± 0.64 | 9.77 ± 0.67 | 10.2 ± 0.7 |
| CC(C)CC(C)(C)C [2,2,4-trimethylpentane] + CCCCn1cc[n+](C)c1.N#CN=C=[N-] | 111 ± 8 | 105 ± 7 | 101 ± 7 | 96.5 ± 6.6 | 92.8 ± 6.4 | 89.2 ± 6.1 |
| C1CCCCCC1 [cycloheptane] + CCCCn1cc[n+](C)c1.N#CN=C=[N-] | 32.6 ± 2.2 | 31.2 ± 2.1 | 30.1 ± 2.1 | 29.1 ± 2 | 28.1 ± 1.9 | 27.3 ± 1.9 |
| CC(C)O [propan-2-ol] + CCCCn1cc[n+](C)c1.N#CN=C=[N-] | 0.921 ± 0.058 | 0.93 ± 0.059 | 0.94 ± 0.059 | 0.948 ± 0.06 | 0.956 ± 0.06 | 0.963 ± 0.061 |
| C=CCCCCCCCC [1-decene] + CCCCn1cc[n+](C)c1.N#CN=C=[N-] | 134 ± 9 | 128 ± 9 | 123 ± 8 | 119 ± 8 | 115 ± 8 | 111 ± 8 |

| Structure (SMILES) | activity coefficient (318.15 K) | activity coefficient (328.15 K) | activity coefficient (338.15 K) | activity coefficient (348.15 K) | activity coefficient (358.15 K) | activity coefficient (368.15 K) |
| --- | --- | --- | --- | --- | --- | --- |
| CC1CCCCC1 [methylcyclohexane] + CCCCn1cc[n+](C)c1.N#CN=C=[N-] | 40.2 ± 2.8 | 38.3 ± 2.6 | 36.5 ± 2.5 | 35 ± 2.4 | 33.6 ± 2.3 | 32.4 ± 2.2 |
| O [water] + CCCCn1cc[n+](C)c1.N#CN=C=[N-] | 0.31 ± 0.03 | 0.323 ± 0.032 | 0.336 ± 0.032 | 0.349 ± 0.032 | 0.363 ± 0.033 | 0.376 ± 0.033 |
| CCCCO [butan-1-ol] + CCCCn1cc[n+](C)c1.N#CN=C=[N-] | 1.1 ± 0.07 | 1.11 ± 0.07 | 1.12 ± 0.07 | 1.13 ± 0.07 | 1.14 ± 0.07 | 1.15 ± 0.07 |
| C1CCCC1 [cyclopentane] + CCCCn1cc[n+](C)c1.N#CN=C=[N-] | 17.4 ± 1.2 | 16.9 ± 1.2 | 16.3 ± 1.1 | 15.9 ± 1.1 | 15.5 ± 1.1 | 15.1 ± 1 |
| CC(C)OC(C)C [diisopropyl ether] + CCCCn1cc[n+](C)c1.N#CN=C=[N-] | 20.6 ± 1.4 | 20.9 ± 1.4 | 21.2 ± 1.4 | 21.5 ± 1.5 | 21.8 ± 1.5 | 22 ± 1.5 |
| CCC[N+](=O)[O-] [1-nitropropane] + CCCCn1cc[n+](C)c1.N#CN=C=[N-] | 1.26 ± 0.08 | 1.31 ± 0.09 | 1.36 ± 0.09 | 1.41 ± 0.09 | 1.45 ± 0.1 | 1.5 ± 0.1 |
| COC(C)(C)C [2-methoxy-2-methylpropane] + CCCCn1cc[n+](C)c1.N#CN=C=[N-] | 7.13 ± 0.49 | 7.47 ± 0.51 | 7.8 ± 0.53 | 8.14 ± 0.56 | 8.46 ± 0.58 | 8.8 ± 0.6 |
| C1=CCCCC1 [cyclohexene] + CCCCn1cc[n+](C)c1.N#CN=C=[N-] | 11.4 ± 0.8 | 11.4 ± 0.8 | 11.3 ± 0.8 | 11.3 ± 0.8 | 11.3 ± 0.8 | 11.3 ± 0.8 |
| CCC(=O)OC [methyl propanoate] + CCCCn1cc[n+](C)c1.N#CN=C=[N-] | 2.36 ± 0.16 | 2.47 ± 0.17 | 2.59 ± 0.18 | 2.7 ± 0.18 | 2.81 ± 0.19 | 2.92 ± 0.2 |
| CCCCC [pentane] + CCCCn1cc[n+](C)c1.N#CN=C=[N-] | 41.7 ± 2.9 | 40.1 ± 2.7 | 38.6 ± 2.6 | 37.3 ± 2.6 | 36.1 ± 2.5 | 34.9 ± 2.4 |
| CCCCCCCC [octane] + CCCCn1cc[n+](C)c1.N#CN=C=[N-] | 137 ± 9 | 129 ± 9 | 123 ± 8 | 116 ± 8 | 111 ± 8 | 106 ± 7 |
| C=CCCCCCC [oct-1-ene] + CCCCn1cc[n+](C)c1.N#CN=C=[N-] | 60.1 ± 4.1 | 58.9 ± 4 | 58 ± 4 | 57 ± 3.9 | 56.2 ± 3.8 | 55.5 ± 3.8 |
| CCc1ccccc1 [ethylbenzene] + CCCCn1cc[n+](C)c1.N#CN=C=[N-] | 4.78 ± 0.33 | 4.89 ± 0.33 | 5.07 ± 0.35 | 5.19 ± 0.35 | 5.33 ± 0.36 | 5.55 ± 0.38 |
| CCCC(C)=O [pentan-2-one] + CCCCn1cc[n+](C)c1.N#CN=C=[N-] | 2 ± 0.14 | 2.11 ± 0.14 | 2.22 ± 0.15 | 2.32 ± 0.16 | 2.43 ± 0.17 | 2.53 ± 0.17 |
| CC(C)CO [2-methyl-1-propanol] + CCCCn1cc[n+](C)c1.N#CN=C=[N-] | 1.08 ± 0.07 | 1.08 ± 0.07 | 1.09 ± 0.07 | 1.09 ± 0.07 | 1.09 ± 0.07 | 1.09 ± 0.07 |
| C1COCCO1 [1,4-dioxane] + CCCCn1cc[n+](C)c1.N#CN=C=[N-] | 1.06 ± 0.07 | 1.13 ± 0.07 | 1.21 ± 0.08 | 1.28 ± 0.08 | 1.36 ± 0.09 | 1.43 ± 0.09 |
| CC#N [acetonitrile] + CCCCn1cc[n+](C)c1.N#CN=C=[N-] | 0.781 ± 0.051 | 0.813 ± 0.053 | 0.844 ± 0.054 | 0.876 ± 0.056 | 0.904 ± 0.057 | 0.934 ± 0.059 |
| C1CCCCC1 [cyclohexane] + CCCCn1cc[n+](C)c1.N#CN=C=[N-] | 25.8 ± 1.8 | 25 ± 1.7 | 24.3 ± 1.7 | 23.7 ± 1.6 | 23.1 ± 1.6 | 22.6 ± 1.5 |
